Experiments:
[1] = system: brain microvascular endothelial cells bEnd.3; assay: FITC-dextran transport across physiological blood-brain barrier Transwell model; assay type: cell-based; settings: SC79 0, 5, 10 μg/mL; 24 hours, then FITC-dextran 10 kDa for 4 hours
Protocol: FIG. 7: In vitro dose-dependent influence of SC79 on the efficiency of transportation of FITC-dextran cross the blood-brain barrier. A Transwell model of brain microvascular endothelial cells bEnd.3 was used to mimic the physiological blood-brain barrier. SC79 at different concentrations (0, 5 μg/mL, 10 μg/mL) was applied to the Transwell chamber. After 24 hours, the Transwell chamber and the outer chamber were washed with PBS. A solution of FITC-dextran in HBSS was added to the Transwell chamber for an action of 4 hours.
Brain microvascular endothelial cells bEnd.3 were used as model cells of a blood-brain barrier. 0.5 mL suspension of well-grown bEnd.3 cells was inoculated in the chamber of a 12-well Transwell plate with a pore size of 0.4 μm at a cell density of 1×10^5/well. 1.5 mL of fresh culture medium was supplemented in the outer chamber. The culture medium was refreshed every other day. Incubation was continued for 15 days at 37° C. and 5% CO2. […]
A protein kinase B activator SC79 at different concentrations ([…], 10 μg/mL) was added into the Transwell chamber in the model of physiological blood-brain barrier. […] After the cells were incubated at 37° C. in the dark for 4 hours, the concentration of FITC-dextran transferred to the outer chamber via the Transwell chamber was detected with a fluorescence spectrophotometer.

[2] = system: tight junction proteins Claudin-5/Occludin in bEnd.3 cells; assay: Claudin-5/Occludin immunofluorescence in physiological blood-brain barrier Transwell model after SC79; assay type: cell-based; settings: SC79 0, 5, 10 μg/mL, 24 hours
Protocol: FIG. 8: In vitro dose-dependent down-regulation of expression of tight junction proteins Claudin-5/Occludin by SC79. A Transwell model of brain microvascular endothelial cells bEnd.3 was used to mimic the physiological blood-brain barrier. SC79 at different concentrations (0, 5 μg/mL, 10 μg/mL) was applied to the Transwell chamber. After 24 hours, the bEnd.3 cells on the membrane of the Transwell chamber were immunofluorescence stained.
Brain microvascular endothelial cells bEnd.3 were used as model cells of a blood-brain barrier. 0.5 mL suspension of well-grown bEnd.3 cells was inoculated in the chamber of a 12-well Transwell plate with a pore size of 0.4 μm at a cell density of 1×10^5/well. 1.5 mL of fresh culture medium was supplemented in the outer chamber. The culture medium was refreshed every other day. Incubation was continued for 15 days at 37° C. and 5% CO2. When the cell transmembrane resistance value was greater than 150 ohm·cm^2 (Ω·cm^2), it may be regarded that a model of physiological blood-brain barrier was obtained.
A protein kinase B activator SC79 at different concentrations (0, 5 μg/mL, 10 μg/mL) was added into the Transwell chamber in the model of physiological blood-brain barrier. […]

CCOC(=O)C1=C(N)Oc2ccc(Cl)cc2C1C(C#N)C(=O)OCC (centres unmarked) [SC79]
blood-brain barrier permeability (FITC-dextran in outer chamber) [1]: increase the blood-brain barrier permeability | expression of tight junction proteins Claudin-5/Occludin [2]: promotes down-regulation of expression of tight junction proteins

From patent publication US12370167B2, “Blood-brain barrier permeability regulator and use thereof” (ZHEJIANG UNIVERSITY, priority 2019, dated 2025)
